In PubChem BioAssay (NCI):
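Results reflect a 48-hour exposure of cells in 96-well plates to compound at five concentrations. TGI: concentration producing complete growth inhibition.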

What was measured:
Assay in all cases: growth of human tumour cells (NCI), 48 h
786-0 renal = test system: 786-0 renal
A549 NSCLC = test system: A549 NSCLC
ACHN renal = test system: ACHN renal
CAKI-1 renal = test system: CAKI-1 renal
COLO 205 colon = test system: COLO 205 colon
DU-145 prostate = test system: DU-145 prostate
HCT-116 colon = test system: HCT-116 colon
HCT-15 colon = test system: HCT-15 colon
HL-60(TB) leukemia = test system: HL-60(TB) leukemia
HOP-62 NSCLC = test system: HOP-62 NSCLC
HOP-92 NSCLC = test system: HOP-92 NSCLC
HS 578T breast = test system: HS 578T breast
HT29 colon = test system: HT29 colon
IGROV1 ovarian = test system: IGROV1 ovarian
K-562 leukemia = test system: K-562 leukemia
KM12 colon = test system: KM12 colon
LOX IMVI melanoma = test system: LOX IMVI melanoma
M14 melanoma = test system: M14 melanoma
MALME-3M melanoma = test system: MALME-3M melanoma
MDA-MB-231 breast = test system: MDA-MB-231 breast
MDA-MB-435 = test system: MDA-MB-435
MDA-N = test system: MDA-N
MOLT-4 leukemia = test system: MOLT-4 leukemia
NCI-H226 lung = test system: NCI-H226 lung
NCI-H23 lung = test system: NCI-H23 lung
NCI-H460 lung = test system: NCI-H460 lung
NCI-H522 lung = test system: NCI-H522 lung
NCI/ADR-RES ovarian = test system: NCI/ADR-RES ovarian
OVCAR-4 ovarian = test system: OVCAR-4 ovarian
OVCAR-5 ovarian = test system: OVCAR-5 ovarian
OVCAR-8 ovarian = test system: OVCAR-8 ovarian
PC-3 prostate = test system: PC-3 prostate
RPMI-8226 leukemia = test system: RPMI-8226 leukemia
SF-268 CNS = test system: SF-268 CNS
SF-539 CNS = test system: SF-539 CNS
SK-MEL-2 melanoma = test system: SK-MEL-2 melanoma
SK-MEL-28 melanoma = test system: SK-MEL-28 melanoma
SK-MEL-5 melanoma = test system: SK-MEL-5 melanoma
SK-OV-3 ovarian = test system: SK-OV-3 ovarian
SN12C renal = test system: SN12C renal
SNB-19 CNS = test system: SNB-19 CNS
SNB-75 CNS = test system: SNB-75 CNS
SR leukemia = test system: SR leukemia
SW-620 colon = test system: SW-620 colon
TK-10 renal = test system: TK-10 renal
U251 CNS = test system: U251 CNS
UACC-257 melanoma = test system: UACC-257 melanoma
UACC-62 melanoma = test system: UACC-62 melanoma
UO-31 renal = test system: UO-31 renal
A498 renal = test system: A498 renal
BT-549 breast = test system: BT-549 breast
CCRF-CEM leukemia = test system: CCRF-CEM leukemia
EKVX NSCLC = test system: EKVX NSCLC
HCC-2998 colon = test system: HCC-2998 colon
OVCAR-3 ovarian = test system: OVCAR-3 ovarian
RXF 393 renal = test system: RXF 393 renal
SF-295 CNS = test system: SF-295 CNS
T-47D breast = test system: T-47D breast

Structure (SMILES): O=C(OC1C(Oc2ccccc2COC(=O)C2(O)C=CCCC2=O)OC(CO)C(O)C1O)c1ccccc1 (centres undefined)
- TGI (786-0 renal): > 100 µM
- TGI (A549 NSCLC): 38.8 µM
- TGI (ACHN renal): > 100 µM
- TGI (CAKI-1 renal): 28.3 µM
- TGI (COLO 205 colon): 90.3 µM
- TGI (DU-145 prostate): > 100 µM
- TGI (HCT-116 colon): > 100 µM
- TGI (HCT-15 colon): > 100 µM
- TGI (HL-60(TB) leukemia): 54.6 µM
- TGI (HOP-62 NSCLC): > 100 µM
- TGI (HOP-92 NSCLC): 42.5 µM
- TGI (HS 578T breast): 56.4 µM
- TGI (HT29 colon): > 100 µM
- TGI (IGROV1 ovarian): > 100 µM
- TGI (K-562 leukemia): > 100 µM
- TGI (KM12 colon): > 100 µM
- TGI (LOX IMVI melanoma): > 100 µM
- TGI (M14 melanoma): > 100 µM
- TGI (MALME-3M melanoma): 82.1 µM
- TGI (MDA-MB-231 breast): > 100 µM
- TGI (MDA-MB-435): > 100 µM
- TGI (MDA-N): > 100 µM
- TGI (MOLT-4 leukemia): 76.9 µM
- TGI (NCI-H226 lung): > 100 µM
- TGI (NCI-H23 lung): > 100 µM
- TGI (NCI-H460 lung): > 100 µM
- TGI (NCI-H522 lung): 51.1 µM
- TGI (NCI/ADR-RES ovarian): > 100 µM
- TGI (OVCAR-4 ovarian): > 100 µM
- TGI (OVCAR-5 ovarian): > 100 µM
- TGI (OVCAR-8 ovarian): > 100 µM
- TGI (PC-3 prostate): > 100 µM
- TGI (RPMI-8226 leukemia): 58.1 µM
- TGI (SF-268 CNS): 93.5 µM
- TGI (SF-539 CNS): > 100 µM
- TGI (SK-MEL-2 melanoma): > 100 µM
- TGI (SK-MEL-28 melanoma): > 100 µM
- TGI (SK-MEL-5 melanoma): 17.9 µM
- TGI (SK-OV-3 ovarian): > 100 µM
- TGI (SN12C renal): > 100 µM
- TGI (SNB-19 CNS): > 100 µM
- TGI (SNB-75 CNS): 60 µM
- TGI (SR leukemia): > 100 µM
- TGI (SW-620 colon): > 100 µM
- TGI (TK-10 renal): > 100 µM
- TGI (U251 CNS): > 100 µM
- TGI (UACC-257 melanoma): > 100 µM
- TGI (UACC-62 melanoma): > 100 µM
- TGI (UO-31 renal): > 100 µM

Structure (SMILES): CN(C)c1nc2n(CCO)ccnc-2c(=O)n1
- TGI (786-0 renal): > 100 µM
- TGI (A498 renal): > 100 µM
- TGI (A549 NSCLC): > 100 µM
- TGI (ACHN renal): > 100 µM
- TGI (BT-549 breast): > 100 µM
- TGI (CAKI-1 renal): > 100 µM
- TGI (CCRF-CEM leukemia): > 100 µM
- TGI (COLO 205 colon): > 100 µM
- TGI (DU-145 prostate): > 100 µM
- TGI (EKVX NSCLC): > 100 µM
- TGI (HCC-2998 colon): > 100 µM
- TGI (HCT-116 colon): > 100 µM
- TGI (HCT-15 colon): > 100 µM
- TGI (HOP-62 NSCLC): > 100 µM
- TGI (HOP-92 NSCLC): > 100 µM
- TGI (HS 578T breast): > 100 µM
- TGI (HT29 colon): > 100 µM
- TGI (IGROV1 ovarian): > 100 µM
- TGI (K-562 leukemia): > 100 µM
- TGI (KM12 colon): > 100 µM
- TGI (LOX IMVI melanoma): > 100 µM
- TGI (M14 melanoma): > 100 µM
- TGI (MALME-3M melanoma): > 100 µM
- TGI (MDA-MB-231 breast): > 100 µM
- TGI (MDA-MB-435): > 100 µM
- TGI (MDA-N): > 100 µM
- TGI (MOLT-4 leukemia): > 100 µM
- TGI (NCI-H226 lung): > 100 µM
- TGI (NCI-H23 lung): > 100 µM
- TGI (NCI-H460 lung): > 100 µM
- TGI (NCI-H522 lung): > 100 µM
- TGI (NCI/ADR-RES ovarian): > 100 µM
- TGI (OVCAR-3 ovarian): > 100 µM
- TGI (OVCAR-4 ovarian): > 100 µM
- TGI (OVCAR-5 ovarian): > 100 µM
- TGI (OVCAR-8 ovarian): > 100 µM
- TGI (PC-3 prostate): > 100 µM
- TGI (RPMI-8226 leukemia): > 100 µM
- TGI (RXF 393 renal): > 100 µM
- TGI (SF-268 CNS): > 100 µM
- TGI (SF-295 CNS): > 100 µM
- TGI (SF-539 CNS): > 100 µM
- TGI (SK-MEL-2 melanoma): > 100 µM
- TGI (SK-MEL-28 melanoma): > 100 µM
- TGI (SK-MEL-5 melanoma): > 100 µM
- TGI (SK-OV-3 ovarian): > 100 µM
- TGI (SN12C renal): > 100 µM
- TGI (SNB-19 CNS): > 100 µM
- TGI (SNB-75 CNS): > 100 µM
- TGI (SR leukemia): > 100 µM
- TGI (SW-620 colon): > 100 µM
- TGI (T-47D breast): > 100 µM
- TGI (TK-10 renal): > 100 µM
- TGI (U251 CNS): > 100 µM
- TGI (UACC-257 melanoma): > 100 µM
- TGI (UACC-62 melanoma): > 100 µM
- TGI (UO-31 renal): > 100 µM

Structure (SMILES): c1ccc(N=C(N2CCCCC2)N(CCN2CCCCC2)c2ccccc2)cc1
- TGI (A549 NSCLC): 14.2 µM
- TGI (ACHN renal): 4.58 µM
- TGI (CAKI-1 renal): 14.1 µM
- TGI (CCRF-CEM leukemia): 2.03 µM
- TGI (COLO 205 colon): 11.2 µM
- TGI (DU-145 prostate): 12.7 µM
- TGI (HCC-2998 colon): 5.16 µM
- TGI (HCT-116 colon): 4.18 µM
- TGI (HCT-15 colon): 12.7 µM
- TGI (HL-60(TB) leukemia): 1.02 µM
- TGI (HOP-62 NSCLC): 3.07 µM
- TGI (HOP-92 NSCLC): 6.2 µM
- TGI (HS 578T breast): 3.51 µM
- TGI (HT29 colon): 2.93 µM
- TGI (IGROV1 ovarian): 12.1 µM
- TGI (K-562 leukemia): 4.27 µM
- TGI (LOX IMVI melanoma): 2.39 µM
- TGI (M14 melanoma): 16.1 µM
- TGI (MDA-MB-231 breast): 11 µM
- TGI (MDA-MB-435): 9.01 µM
- TGI (MDA-N): 2.96 µM
- TGI (MOLT-4 leukemia): 1.74 µM
- TGI (NCI-H226 lung): 16 µM
- TGI (NCI-H23 lung): 7.17 µM
- TGI (NCI-H460 lung): 2.02 µM
- TGI (NCI-H522 lung): 4.58 µM
- TGI (NCI/ADR-RES ovarian): 4.29 µM
- TGI (OVCAR-3 ovarian): 2.51 µM
- TGI (OVCAR-4 ovarian): 17 µM
- TGI (OVCAR-5 ovarian): 8.01 µM
- TGI (OVCAR-8 ovarian): 11.3 µM
- TGI (PC-3 prostate): 3.72 µM
- TGI (RPMI-8226 leukemia): 0.627 µM
- TGI (SF-295 CNS): 2.21 µM
- TGI (SK-MEL-2 melanoma): 4.64 µM
- TGI (SK-MEL-28 melanoma): 8.65 µM
- TGI (SK-MEL-5 melanoma): 3.3 µM
- TGI (SK-OV-3 ovarian): 14 µM
- TGI (SN12C renal): 12.5 µM
- TGI (SNB-19 CNS): 14.4 µM
- TGI (SNB-75 CNS): 6.44 µM
- TGI (SR leukemia): 2.31 µM
- TGI (SW-620 colon): 13.7 µM
- TGI (T-47D breast): 9.23 µM
- TGI (TK-10 renal): 14.2 µM
- TGI (U251 CNS): 5.39 µM
- TGI (UACC-257 melanoma): 6.61 µM
- TGI (UO-31 renal): 8.07 µM
